According to patent US11123398B2, “Chemotherapeutic combinations of cationic antimicrobial peptides and chemotherapeutics” (LYTIX BIOPHARMA AS, priority 2014, dated 2021):
Non-standard residues stand in square brackets, D forms with d. Residues, ends and D or L forms follow the SMILES beside them. Dip = N[C@H](C(=O)O)C(c1ccccc1)c1ccccc1

Legend:
[1] = test system: HL-60/ADR; assay: MTS cytotoxicity assay, HL-60/ADR; format: cell-based, human; conditions: IC50 resistant / IC50 sensitive line; doxorubicin resistance
Procedure: Tumor cells were plated in 96-well flat-bottom microtitration plates (Nunc, Dutscher, Brumath, France) and incubated at 37° C. for 24 hours before treatment in 190 μl of drug-free culture medium supplemented or not with 10% FBS for adherent or suspension growing cell lines, respectively.
The adherent cell lines were washed once with 200 μl FBS-free culture medium before treatment. Tumor cells were incubated for 4 hours with 10 concentrations of compounds in ¼ dilution step with a top dose of 400 μM (range 4×10^−4 to 4×10^−10 M), with 1% (final concentration) Triton X-100 as positive control and FBS-free culture medium as negative control. The cells (190 μl) were incubated in a 200 μl final volume of FBS-free culture medium containing test substances at 37° C. under 5% CO2.
Three independent experiments were performed, each concentration being tested in quadruplicate. Control cells were treated with vehicle alone. At the end of treatments, the cytotoxic activity was evaluated by a MTS assay (see § 3.3.).
Like MTT, MTS is bioreduced by cells into a formazan product that is directly soluble in culture medium without processing, unlike MTT.
At the end of the cells treatment, 40 μl of a 0.22 μm filtered freshly combined solution of MTS (20 ml at 2 mg/ml, Ref G1111, Batch 235897, Exp March 2009, Promega, Charbonnières, France) and PMS (1 ml at 0.92 mg/ml, Ref P9625, Batch 065K0961, Sigma) in Dulbecco's Phosphate Buffered Saline (DPBS, Ref 17-513Q, Batch 6MB0152, Cambrex), were added in each well. Culture plates were incubated for 2 h at 37° C. Absorbency (OD) were measured at 490 nm in each well using VICTOR^3™ 1420 multilabeled counter (Wallac, PerkinElmer, Courtaboeuf, France).
IC50: drug concentration to obtain a 50% inhibition of cell proliferation.
The dose-response curves were plotted using XLFit 3 (IDBS, United Kingdom). The IC50 determination values were calculated using the XLFit 3 software from semi-log curves. Individual IC50 determination values as well as mean and SD values were generated.
Resistance index was calculated using the following formula: […]
Resistance index was calculated for each compound for each couple of sensitive and resistant cell lines. Individual resistance index was calculated when IC50 values of both sensitive and corresponding resistant cell lines were determined within same experiment. In addition, resistance index was also calculated ratio of mean IC50 values obtained during three independent experiments.

[2] = test system: murine CT26WT colon carcinoma; assay: Murine CT26WT colon carcinoma tumours in mice, treatment regimes; format: in vivo; conditions: for Mean tumour size at day 1: prior to start of treatment
Procedure: The administration takes place by intra-tumoural injection of LTX-315 dissolved in sterile saline (0.9% NaCl in sterile water).
The mice were divided into five groups, 8 mice in each group. When the tumours reached the desired size of 20 mm^2 the treatment by intra tumoural injection was initiated. Group one was treated solely on day 1, Group two on day 1 and 2, Group three on day 1 and 3 and Group four on day 1, 2 and 3. All daily treatments were one single injection of 1.0 mg LTX-315 dissolved in 50 μl (20 mg/ml). Group five was treated with the 50 μl of vehicle for LTX-315 (Group 5).
Weighing and physical examination were used as health controls.

[3] = test system: CT26WT colon carcinoma cells; assay: Re-challenge with CT26WT colon carcinoma in mice with complete regression; format: in vivo, Balb-c mice; conditions: of 9 mice previously treated with 0.5 or 1 mg
Procedure: Methods: Female Balb-c mice (n=4), previously treated with LTX-315, 1 mg) or (n=9); previously treated with LTX-315 0.5 or 1 mg) were re-inoculated (s.c. in the abdominal area) with either murine A20 B cell lymphoma cells or CT26WT colon carcinoma cells (5 million) respectively 6 weeks following initial treatment with LTX-315. Tumour growth was monitored for up to 36 days following re-inoculation.

[4] = test system: A375 cells; assay: Release of ATP (luciferase assay); format: cell-based, human; conditions: luciferase detection; concentration-dependent
Procedure: The supernatant of LTX-315-treated A375 cells was analyzed using an Enliten ATP luciferase assay kit (Promega, USA). Cells were then seeded as with an ROS assay, and treated with LTX-315 in different incubation times, from 1 to 15 minutes with two parallels, which was then conducted three times. Negative controls were untreated A375 cells exposed to serum-free media alone. Samples were diluted at 1:50 and 1:100, and analyzed with a Luminoscan RT luminometer according to the manufacturer's protocol.

[5] = Group 1: 1 mg intratumoural on day 1
[6] = Group 2: 1 mg intratumoural on days 1, 2
[7] = Group 3: 1 mg intratumoural on days 1, 3
[8] = Group 4: 1 mg days 1, 2, 3, n=8
[9] = Group 4: 1 mg intratumoural on days 1, 2, 3
[10] = of the 32 treated animals, all four regimes

With `NCCCC[C@H](NC(=O)[C@@H](NC(=O)[C@H](Cc1c[nH]c2ccccc12)NC(=O)[C@H](CCCCN)NC(=O)[C@H](CCCCN)NC(=O)[C@H](Cc1c[nH]c2ccccc12)NC(=O)[C@H](Cc1c[nH]c2ccccc12)NC(=O)[C@H](CCCCN)NC(=O)[C@@H](N)CCCCN)C(c1ccccc1)c1ccccc1)C(N)=O` [LTX-315, K-K-W-W-K-K-W-Dip-K-NH2] (H-KKWWKKW[Dip]K-NH2) the “Resistance index (RI), HL-60/ADR” value [1] was 1.45, the “Animals showing complete tumour response” value ([2]; Group 1: 1 mg day 1) was “four out of eight” and the “Free of Tumour at end of Follow-Up” value ([2]; Group 1: 1 mg day 1, n=8) was 50% (4/8). The “Relapse of Tumour” value ([2]; Group 1: 1 mg day 1, n=8) was 20% (1/5), the “Tumour Response: complete response” value ([2]; Group 1: 1 mg day 1, n=8) was 62.5% and the “Tumour Response: no response” value ([2]; Group 1: 1 mg day 1, n=8) was 0%. The “Tumour Response: partial response” value ([2]; Group 1: 1 mg day 1, n=8) was 27.5%, the “Mean tumour size on day 6” value [2, 5] was 4.343 ± 2.295 mm^2 and the “Mean tumour size on day 10” value [2, 5] was 7.171 ± 4.035 mm^2. For the same compound, the “Mean tumour size on day 17” value [2, 5] was 3.712 ± 3.712 mm^2, the “Mean tumour size at day 1” value [2, 5] was 22.69 ± 0.4070 mm^2 and the “Animals showing complete tumour response” value ([2]; Group 2: 1 mg days 1, 2) was “two out of eight”. For the same compound, the “Free of Tumour at end of Follow-Up” value ([2]; Group 2: 1 mg days 1, 2, n=8) was 25% (2/8), the “Relapse of Tumour” value ([2]; Group 2: 1 mg days 1, 2, n=8) was 71% (5/7) and the “Tumour Response: complete response” value ([2]; Group 2: 1 mg days 1, 2, n=8) was 87.5%. For the same compound, the “Tumour Response: no response” value ([2]; Group 2: 1 mg days 1, 2, n=8) was 0%, the “Tumour Response: partial response” value ([2]; Group 2: 1 mg days 1, 2, n=8) was 12.5% and the “Mean tumour size on day 6” value [2, 6] was 1.458 ± 1.458 mm^2. The “Mean tumour size on day 10” value [2, 6] was 5.058 ± 4.014 mm^2, the “Mean tumour size on day 17” value [2, 6] was 6.644 ± 3.430 mm^2 and the “Mean tumour size at day 1” value [2, 6] was 22.90 ± 1.155 mm^2. For the same compound, the “Animals showing complete tumour response” value ([2]; Group 3: 1 mg days 1, 3) was “five out of eight”, the “Free of Tumour at end of Follow-Up” value ([2]; Group 3: 1 mg days 1, 3, n=8) was 62.5% (5/8) and the “Relapse of Tumour” value ([2]; Group 3: 1 mg days 1, 3, n=8) was 29% (2/7). For the same compound, the “Tumour Response: complete response” value ([2]; Group 3: 1 mg days 1, 3, n=8) was 87.5%, the “Tumour Response: no response” value ([2]; Group 3: 1 mg days 1, 3, n=8) was 12.5% and the “Tumour Response: partial response” value ([2]; Group 3: 1 mg days 1, 3, n=8) was 0%. For the same compound, the “Mean tumour size on day 6” value [2, 7] was 2.983 ± 2.983 mm^2, the “Mean tumour size on day 10” value [2, 7] was 10.85 ± 7.553 mm^2 and the “Mean tumour size on day 17” value [2, 7] was 0.00 ± 0.00 mm^2. For the same compound, the “Mean tumour size at day 1” value [2, 7] was 21.43 ± 1.141 mm^2, the “Animals showing complete tumour response” value ([2]; Group 4: 1 mg days 1, 2, 3) was “five out of eight” and the “Free of Tumour at end of Follow-Up” value [2, 8] was 62.5% (5/8). The “Relapse of Tumour” value [2, 8] was 37.5%, the “Tumour Response: complete response” value [2, 8] was 100% (8/8) and the “Tumour Response: no response” value [2, 8] was 0%. For the same compound, the “Tumour Response: partial response” value [2, 8] was 0%, the “Mean tumour size on day 6” value [2, 9] was 0.00 ± 0.00 mm^2 and the “Mean tumour size on day 10” value [2, 9] was 0.00 ± 0.00 mm^2. The “Mean tumour size on day 17” value [2, 9] was 1.308 ± 1.308 mm^2, the “Mean tumour size at day 1” value [2, 9] was 24.09 ± 1.653 mm^2 and the “Anti-tumour effect” value ([2]; all four treatment regimes) was “strong anti tumour effect”. For the same compound, the “Toxic or other adverse effects” value ([2]; all treated groups, intratumoural 1 mg) was “No toxic or other adverse effects besides local necrotic tissue and wound formation were observed”, the “Animals without response to the treatment” value ([2]; of the 32 treated animals (in Group 3)) was “one” and the “Animals with a complete tumour response” value [2, 10] was 27. The “Animals with a partial response” value [2, 10] was “four”, the “Animals with complete regression after re-inoculation” value [3] was 2 and the “Mice with inhibition of tumour growth after re-inoculation” value ([3]; P<0.01 versus control) was 7. For the same compound, the “ATP release into supernatant” value [4] was “ATP was detected in the supernatant as early as after 5 minutes of treatment”.
